This test has as its target PD-1/PD-L1 protein/protein interaction (Homo sapiens (Human), UniProt Q9NZQ7). The experiment in a line: PD-1/PD-L1 Homogeneous Time-Resolved Fluorescence (HTRF) binding assay. The settings on record: recombinant human PD-L1 (19-238) His-tag 10 nM, human PD-1 (25-167) Fc tag 3 nM, 25° C., PBS pH 7.4. The protocol:
Example A. PD-1/PD-L Homogeneous Time-Resolved Fluorescence (HTRF) Binding Assay
The assays were conducted in a standard black 384-well polystyrene plate with a final volume of 20 μL. Inhibitors were first serially diluted in DMSO and then added to the plate wells before the addition of other reaction components. The final concentration of DMSO in the assay was 1%. The assays were carried out at 25° C. in the PBS buffer (pH 7.4) with 0.05% Tween-20 and 0.1% BSA. Recombinant human PD-L1 protein (19-238) with a His-tag at the C-terminus was purchased from AcroBiosystems (PD1-H5229). Recombinant human PD-1 protein (25-167) with Fc tag at the C-terminus was also purchased from AcroBiosystems (PD1-H5257). PD-L1 and PD-1 proteins were diluted in the assay buffer and 10 μL was added to the plate well. Plates were centrifuged and proteins were preincubated with inhibitors for 40 minutes. The incubation was followed by the addition of 10 μL of HTRF detection buffer supplemented with Europium cryptate-labeled anti-human IgG (PerkinElmer-AD0212) specific for Fe and anti-His antibody conjugated to SureLight®-Allophycocyanin (APC, PerkinElmer-AD0059H). After centrifugation, the plate was incubated at 25° C. for 60 min. before reading on a PHERAstar FS plate reader (665 nm/620 nm ratio). Final concentrations in the assay were—3 nM PD1, 10 nM PD-L1, 1 nM europium anti-human IgG and 20 nM anti-His-Allophycocyanin.IC50 determination was performed by fitting the curve of percent control activity versus the log of the inhibitor concentration using the GraphPad Prism 5.0 software.
On the technique in general: TR-FRET usually uses a lanthanide donor and a delayed reading to cut background.

pIC50: −log10 of the molar value. Where only a bound is given, the exact number is not on record here.

PD-1/PD-L1 protein/protein interaction, sequence (Q9NZQ7 19-238): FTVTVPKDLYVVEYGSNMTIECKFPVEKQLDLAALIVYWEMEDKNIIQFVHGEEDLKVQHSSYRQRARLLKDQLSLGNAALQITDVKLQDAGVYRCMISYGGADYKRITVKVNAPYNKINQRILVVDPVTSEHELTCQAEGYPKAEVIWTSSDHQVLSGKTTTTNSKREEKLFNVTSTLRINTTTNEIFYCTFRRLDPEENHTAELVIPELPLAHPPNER

Broadly, the pIC50 is the negative decadic logarithm of the IC50, by convention in mol/L. Consider `Cc1c(-c2ccc3c(c2)OCCO3)cccc1-c1nc2cc(CNCCO)cc(C)c2o1` [Example 16, 2-[({2-[3-(2,3-dihydro-1,4-benzodioxin-6-yl)-2-methylphenyl]-7-methyl-1,3-benzoxazol-5-yl}methyl)amino]ethanol], for which the pIC50 was at least 8.00. `Cc1cc(CN2CCCC[C@H]2C(=O)O)cc2nc(-c3cccc(-c4ccc5c(c4)OCCO5)c3C#N)oc12` [Example 17, (2S)-1-({2-[2-cyano-3-(2,3-dihydro-1,4-benzodioxin-6-yl)phenyl]-7-methyl-1,3-benzoxazol-5-yl}methyl)piperidine-2-carboxylic Acid]: the pIC50 is 7.00 to 8.00. The result for `Cc1cc(CNCCO)cc2nc(-c3cccc(-c4ccc5c(c4)OCCO5)c3C#N)oc12` [Example 18, 2-(2,3-dihydro-1,4-benzodioxin-6-yl)-6-(5-{[(2-hydroxyethyl)amino]methyl}-7-methyl-1,3-benzoxazol-2-yl)benzonitrile] reads at least 8.00; that for `Cc1c(-c2ccccc2)cccc1-c1nc2cc(CN3CCCC[C@H]3C(=O)O)ccc2s1` [Example 19, (2S)-1-{[2-(2-methylbiphenyl-3-yl)-1,3-benzothiazol-5-yl]methyl}piperidine-2-carboxylic Acid], 6.00 to 7.00; that for `Cc1c(-c2ccccc2)cccc1-c1cc2nc(CN3CCCC[C@H]3C(=O)O)ccc2o1` [Example 20, (2S)-1-{[2-(2-methylbiphenyl-3-yl)furo[3,2-b]pyridin-5-yl]methyl}piperidine-2-carboxylic Acid], 6.00 to 7.00.

Regarding `Cc1c(-c2ccccc2)cccc1-c1cc2nc(CNCCO)ccc2o1` [Example 21, 2-({[2-(2-methylbiphenyl-3-yl)furo[3,2-b]pyridin-5-yl]methyl}amino)ethanol], the pIC50 was 7.00 to 8.00. The same measure for `Cc1c(-c2ccccc2)cccc1-c1nc2c(C)cc(CN3CCCC[C@H]3C(=O)O)cc2s1` [Example 22, (2S)-1-{[4-methyl-2-(2-methylbiphenyl-3-yl)-1,3-benzothiazol-6-yl]methyl}piperidine-2-carboxylic Acid]: 7.00 to 8.00.

As for `Cc1c(-c2ccccc2)cccc1-c1nc2c(C)cc(CNCCO)cc2s1` [Example 23, 2-({[4-methyl-2-(2-methylbiphenyl-3-yl)-1,3-benzothiazol-6-yl]methyl}amino)ethanol], the pIC50 is 7.00 to 8.00.

Take `Cc1c(-c2ccccc2)cccc1-c1cc2nc(CNCCO)cnc2o1` [Example 24, 2-({[6-(2-methylbiphenyl-3-yl)furo[2,3-b]pyrazin-2-yl]methyl}amino)ethanol]: the pIC50 was 7.00 to 8.00. For the compound `Cc1c(-c2ccccc2)cccc1-c1cc2nc(CN3CCCC[C@H]3C(=O)O)cnc2o1` [Example 25, (2S)-1-{[6-(2-methylbiphenyl-3-yl)furo[2,3-b]pyrazin-2-yl]methyl}piperidine-2-carboxylic Acid], the pIC50 is 6.00 to 7.00. Regarding `Cc1c(-c2ccccc2)cccc1-c1nc2cc(CN3CCCC[C@H]3C(=O)O)c(OCC#N)cc2o1` [Example 26, (2S)-1-{[6-(cyanomethoxy)-2-(2-methylbiphenyl-3-yl)-1,3-benzoxazol-5-yl]methyl}piperidine-2-carboxylic Acid], the pIC50 was at least 8.00. Regarding `Cc1c(-c2ccccc2)cccc1-c1nc2cc(CNCCO)c(OCC#N)cc2o1` [Example 27, {[5-{[(2-hydroxyethyl)amino]methyl}-2-(2-methylbiphenyl-3-yl)-1,3-benzoxazol-6-yl]oxy}acetonitrile], the pIC50 was at least 8.00.

For the compound `Cc1c(-c2ccccc2)cccc1-c1nc2cc(CN3CCCC[C@H]3C(=O)O)c(OCCCC#N)cc2o1` [Example 28, (2S)-1-{[6-(3-cyanopropoxy)-2-(2-methylbiphenyl-3-yl)-1,3-benzoxazol-5-yl]methyl}piperidine-2-carboxylic Acid], the pIC50 is at least 8.00. As for `Cc1c(-c2ccccc2)cccc1-c1nc2cc(CNCCO)c(OCc3cccc(C#N)c3)cc2o1` [Example 29, 3-({[5-{[(2-hydroxyethyl)amino]methyl}-2-(2-methylbiphenyl-3-yl)-1,3-benzoxazol-6-yl]oxy}methyl)benzonitrile], the pIC50 is 7.00 to 8.00.

In the case of `Cc1c(-c2ccccc2)cccc1-c1nc2cc(CNCCO)c(OCc3ccccn3)cc2o1` [Example 30, 2-({[2-(2-methylbiphenyl-3-yl)-6-(pyridin-2-ylmethoxy)-1,3-benzoxazol-5-yl]methyl}amino)ethanol], the pIC50 is at least 8.00.

For `COc1cc2oc(-c3cccc(-c4ccccc4)c3C)nc2cc1CNCCO` [Example 31, 2-({[6-methoxy-2-(2-methylbiphenyl-3-yl)-1,3-benzoxazol-5-yl]methyl}amino)ethanol], the pIC50 is at least 8.00.

In the case of `Cc1c(-c2ccccc2)cccc1-c1nc2cc(CNCCO)c(OCCN3CCOCC3)cc2o1` [Example 32, 2-({[2-(2-methylbiphenyl-3-yl)-6-(2-morpholin-4-ylethoxy)-1,3-benzoxazol-5-yl]methyl}amino)ethanol], the pIC50 was at least 8.00. Turning to `Cc1c(-c2ccccc2)cccc1-c1nc2cc(CNCCO)ncc2o1` [Example 33, 2-({[2-(2-methylbiphenyl-3-yl)[1,3]oxazolo[5,4-c]pyridin-6-yl]methyl}amino)ethanol], the pIC50 is 7.00 to 8.00. Turning to `Cc1c(-c2ccccc2)cccc1-c1nc2cc(CNCCO)c(OCCCC#N)c(C)c2o1` [Example 34, 4-{[5-{[(2-hydroxyethyl)amino]methyl}-7-methyl-2-(2-methylbiphenyl-3-yl)-1,3-benzoxazol-6-yl]oxy}butanenitrile], the pIC50 is 7.00 to 8.00.

As for `Cc1c(-c2ccc3c(c2)OCCO3)ccnc1-c1nc2cc(CN3CCCC[C@H]3C(=O)O)c(OCC#N)cc2o1` [Example 35, (2S)-1-({6-(cyanomethoxy)-2-[4-(2,3-dihydro-1,4-benzodioxin-6-yl)-3-methylpyridin-2-yl]-1,3-benzoxazol-5-yl}methyl)piperidine-2-carboxylic Acid], the pIC50 is 7.00 to 8.00. Consider `Cc1c(-c2ccc3c(c2)OCCO3)cccc1-c1nc2cc(CN3CCCC[C@H]3C(=O)O)c(OCC#N)cc2o1` [Example 36, (2S)-1-({6-(cyanomethoxy)-2-[3-(2,3-dihydro-1,4-benzodioxin-6-yl)-2-methylphenyl]-1,3-benzoxazol-5-yl}methyl)piperidine-2-carboxylic Acid], for which the pIC50 was at least 8.00. For `N#CCOc1cc2oc(-c3cccc(-c4ccc5c(c4)OCCO5)c3C#N)nc2cc1CN1CCCC[C@H]1C(=O)O` [Example 37, (2S)-1-{[2-[2-cyano-3-(2,3-dihydro-1,4-benzodioxin-6-yl)phenyl]-6-(cyanomethoxy)-1,3-benzoxazol-5-yl]methyl}piperidine-2-carboxylic Acid], the pIC50 is 7.00 to 8.00.

On to `Cc1c(-c2ccccc2)cccc1-c1nc2ccc(CN3CCCC[C@H]3C(=O)O)cc2o1` [Example 38, (2S)-1-{[2-(2-methylbiphenyl-3-yl)-1,3-benzoxazol-6-yl]methyl}piperidine-2-carboxylic Acid], for which the negative-log IC50 (pIC50) was 7.00 to 8.00. Take `Cc1c(-c2nc3cc(CNCCO)c(OCC#N)cc3o2)cccc1-c1ccccc1F` [Example 39, [(2-(2′-fluoro-2-methylbiphenyl-3-yl)-5-{[(2-hydroxyethyl)amino]methyl}-1,3-benzoxazol-6-yl)oxy]acetonitrile]: the pIC50 is at least 8.00. As to `Cc1c(C2=CCCCC2)cccc1-c1nc2cc(CNCCO)c(OCC#N)cc2o1` [Example 40, [(2-(3-cyclohex-1-en-1-yl-2-methylphenyl)-5-{[(2-hydroxyethyl)amino]methyl}-1,3-benzoxazol-6-yl)oxy]acetonitrile], the pIC50 was 7.00 to 8.00.

Source of the values: US11572366B2, “Heterocyclic compounds as immunomodulators” (Incyte Corporation, priority 2015, dated 2023).
